According to patent US20180036289A1 (Gilead Sciences, Inc., priority 2016, published 2018):

Tests used:
[1] = system: TT; details: TT cell line; 120 hours incubation
Description: (§1) All cell lines were obtained from the American Type Culture Collection (ATCC) Manassas, Va. (US). Master and working cell banks (MCB and WCB) were prepared by subculturing in ATCC-recommended media and freezing protocols (www.atcc.org). Cell line stocks for the assays were prepared from the WCB. The MCB, WCBs and assay stocks were prepared within respectively 3, 6 and 9 passages of the ATCC vial.
(§2) Solid powders of reference compounds were weighed on a calibrated balance and dissolved in 100% DMSO. DMSO samples were stored at room temperature. At the day of the experiment, the compound stock was diluted in 3.16 fold steps in 100% DMSO to obtain a 9-point dilution series. This was further diluted 31.6 times in 20 mM sterile Hepes buffer pH 7.4. A volume of 5 μl was transferred to the cells to generate a test concentration range from 3.16×10^−5M to 3.16×10^−9 M in duplicate. The final DMSO concentration during incubation was […] in all wells.
(§3) An assay stock was thawed and diluted in its ATCC recommended medium and dispensed in a 384-well plate, depending on the cell line used, at a concentration of 200-3200 cells per well in 45 μl medium. For each used cell line the optimal cell density is used. The margins of the plate were filled with phosphate-buffered saline. Plated cells were incubated in a humidified atmosphere of 5% CO2 at 37° C. After 24 hours, 5 μl of compound dilution was added and plates were further incubated for another 120 hours. After 120 hours, 25 μl of ATPlite 1Step™ (PerkinElmer) solution was added to each well, and subsequently shaken for 2 minutes. After 10 minutes of incubation in the dark, the luminescence was recorded on an Envision multimode reader (PerkinElmer).
(§4) IC50s were calculated by non-linear regression using IDBS XLfit 5. The percentage growth after 120 h (%-growth) was calculated as follows: 100%×(luminescencet=120h/luminescenceuntreated,t=120h). This was fitted to the ^10log compound concentration (conc) by a 4-parameter logistics curve: %−growth=bottom+(top−bottom)/(1+10^(log IC50-conc)*hill)), where hill is the Hill-coefficient, and bottom and top the asymptotic minimum and maximum cell growth that the compound allows in that assay.

[2] = system: MCF7; assay: Cell proliferation assay (ATPlite), drug with vs without cobicistat; format: cell-based; details: MCF7 cell line; 120 hours incubation
Description: as §1, §2, §3, §4

[3] = system: SJCRH30; assay: as above; format: cell-based; details: SJCRH30 cell line; 120 hours incubation
Description: as §1, §2, §3, §4

[4] = system: A-704; assay: as above; format: cell-based; details: A-704 cell line; 120 hours incubation
Description: as §1, §2, §3, §4

[5] = system: SR; assay: as above; format: cell-based; details: SR cell line; 120 hours incubation
Description: as §1, §2, §3, §4

[6] = system: DLD-1; assay: as above; format: cell-based; details: DLD-1 cell line; 120 hours incubation
Description: as §1, §2, §3, §4

[7] = system: T24; assay: as above; format: cell-based; details: T24 cell line; 120 hours incubation
Description: as §1, §2, §3, §4

[8] = system: SW948; assay: as above; format: cell-based; details: SW948 cell line; 120 hours incubation
Description: as §1, §2, §3, §4

[9] = system: KU812; assay: as above; format: cell-based; details: KU812 cell line; 120 hours incubation
Description: as §1, §2, §3, §4

[10] = system: SK-N-AS; assay: as above; format: cell-based; details: SK-N-AS cell line; 120 hours incubation
Description: as §1, §2, §3, §4

[11] = system: HCT 116; assay: as above; format: cell-based; details: HCT 116 cell line; 120 hours incubation
Description: as §1, §2, §3, §4

[12] = system: LoVo; assay: as above; format: cell-based; details: LoVo cell line; 120 hours incubation
Description: as §1, §2, §3, §4

[13] = system: J82; assay: as above; format: cell-based; details: J82 cell line; 120 hours incubation
Description: as §1, §2, §3, §4

[14] = system: AN3 CA; assay: as above; format: cell-based; details: AN3 CA cell line; 120 hours incubation
Description: as §1, §2, §3, §4

[15] = system: BT-20; assay: as above; format: cell-based; details: BT-20 cell line; 120 hours incubation
Description: as §1, §2, §3, §4

[16] = system: SW620; assay: as above; format: cell-based; details: SW620 cell line; 120 hours incubation
Description: as §1, §2, §3, §4

[17] = system: BT-549; assay: as above; format: cell-based; details: BT-549 cell line; 120 hours incubation
Description: as §1, §2, §3, §4

[18] = system: AU-565; assay: as above; format: cell-based; details: AU-565 cell line; 120 hours incubation
Description: as §1, §2, §3, §4

[19] = system: MOLT-4; assay: as above; format: cell-based; details: MOLT-4 cell line; 120 hours incubation
Description: as §1, §2, §3, §4

[20] = system: CCRF-CEM; assay: as above; format: cell-based; details: CCRF-CEM cell line; 120 hours incubation
Description: as §1, §2, §3, §4

[21] = system: CAL 27; assay: as above; format: cell-based; details: CAL 27 cell line; 120 hours incubation
Description: as §1, §2, §3, §4

[22] = system: BxPC-3; assay: as above; format: cell-based; details: BxPC-3 cell line; 120 hours incubation
Description: as §1, §2, §3, §4

[23] = system: NCI-H82; assay: as above; format: cell-based; details: NCI-H82 cell line; 120 hours incubation
Description: as §1, §2, §3, §4

[24] = system: A-549; assay: as above; format: cell-based; details: A-549 cell line; 120 hours incubation
Description: as §1, §2, §3, §4

[25] = system: AsPC-1; assay: as above; format: cell-based; details: AsPC-1 cell line; 120 hours incubation
Description: as §1, §2, §3, §4

[26] = system: RPMI-7951; assay: as above; format: cell-based; details: RPMI-7951 cell line; 120 hours incubation
Description: as §1, §2, §3, §4

[27] = system: RT4; assay: as above; format: cell-based; details: RT4 cell line; 120 hours incubation
Description: as §1, §2, §3, §4

[28] = system: DU 145; assay: as above; format: cell-based; details: DU 145 cell line; 120 hours incubation
Description: as §1, §2, §3, §4

[29] = system: K-562; assay: as above; format: cell-based; details: K-562 cell line; 120 hours incubation
Description: as §1, §2, §3, §4

[30] = system: 769-P; assay: as above; format: cell-based; details: 769-P cell line; 120 hours incubation
Description: as §1, §2, §3, §4

SMILES	Fold change in IC50 (IC50 [Drug + Cobicistat]/IC50 [Drug]) [1] [fold]	Fold change in IC50 (IC50 [Drug + Cobicistat]/IC50 [Drug]) [2] [fold]	Fold change in IC50 (IC50 [Drug + Cobicistat]/IC50 [Drug]) [3] [fold]	Fold change in IC50 (IC50 [Drug + Cobicistat]/IC50 [Drug]) [4] [fold]	Fold change in IC50 (IC50 [Drug + Cobicistat]/IC50 [Drug]) [5] [fold]	Fold change in IC50 (IC50 [Drug + Cobicistat]/IC50 [Drug]) [6] [fold]	Fold change in IC50 (IC50 [Drug + Cobicistat]/IC50 [Drug]) [7] [fold]	Fold change in IC50 (IC50 [Drug + Cobicistat]/IC50 [Drug]) [8] [fold]	Fold change in IC50 (IC50 [Drug + Cobicistat]/IC50 [Drug]) [9] [fold]	Fold change in IC50 (IC50 [Drug + Cobicistat]/IC50 [Drug]) [10] [fold]	Fold change in IC50 (IC50 [Drug + Cobicistat]/IC50 [Drug]) [11] [fold]	Fold change in IC50 (IC50 [Drug + Cobicistat]/IC50 [Drug]) [12] [fold]	Fold change in IC50 (IC50 [Drug + Cobicistat]/IC50 [Drug]) [13] [fold]	Fold change in IC50 (IC50 [Drug + Cobicistat]/IC50 [Drug]) [14] [fold]	Fold change in IC50 (IC50 [Drug + Cobicistat]/IC50 [Drug]) [15] [fold]	Fold change in IC50 (IC50 [Drug + Cobicistat]/IC50 [Drug]) [16] [fold]	Fold change in IC50 (IC50 [Drug + Cobicistat]/IC50 [Drug]) [17] [fold]	Fold change in IC50 (IC50 [Drug + Cobicistat]/IC50 [Drug]) [18] [fold]	Fold change in IC50 (IC50 [Drug + Cobicistat]/IC50 [Drug]) [19] [fold]	Fold change in IC50 (IC50 [Drug + Cobicistat]/IC50 [Drug]) [20] [fold]	also measured
Cc1nc(Nc2ncc(C(=O)Nc3c(C)cccc3Cl)s2)cc(N2CCN(CCO)CC2)n1 [dasatinib]	0.8	1.9	1.4	1.0	1.9	1.4	3.9	1.2	1.5	1.6	3.4	1.0	2.1	1.2	1.4	3.2	1.5	8.4	1.1	1.3	Fold change in IC50 (IC50 [Drug + Cobicistat]/IC50 [Drug]) [21]: 1.3 fold; Fold change in IC50 (IC50 [Drug + Cobicistat]/IC50 [Drug]) [22]: 2.2 fold; Fold change in IC50 (IC50 [Drug + Cobicistat]/IC50 [Drug]) [23]: 1.1 fold; Fold change in IC50 (IC50 [Drug + Cobicistat]/IC50 [Drug]) [24]: 1.0 fold; Fold change in IC50 (IC50 [Drug + Cobicistat]/IC50 [Drug]) [25]: 1.2 fold; Fold change in IC50 (IC50 [Drug + Cobicistat]/IC50 [Drug]) [26]: 3.0 fold; Fold change in IC50 (IC50 [Drug + Cobicistat]/IC50 [Drug]) [27]: 2.5 fold; Fold change in IC50 (IC50 [Drug + Cobicistat]/IC50 [Drug]) [28]: 3.6 fold; Fold change in IC50 (IC50 [Drug + Cobicistat]/IC50 [Drug]) [29]: 1.1 fold; Fold change in IC50 (IC50 [Drug + Cobicistat]/IC50 [Drug]) [30]: 3.8 fold
CC(=O)O[C@@]12CO[C@@H]1C[C@H](O)[C@@]1(C)C(=O)[C@H](O)C3=C(C)[C@@H](OC(=O)[C@H](O)[C@@H](NC(=O)OC(C)(C)C)c4ccccc4)C[C@@](O)([C@@H](OC(=O)c4ccccc4)[C@H]21)C3(C)C [docetaxel]	3.6	4.1	4.1	2.3	3.6	2.7	6.3	3.5	5.6	3.3	1.9	2.0	3.5	2.1	1.7	2.7	1.4	3.2	1.7	3.6	Fold change in IC50 (IC50 [Drug + Cobicistat]/IC50 [Drug]) [21]: 1.4 fold; Fold change in IC50 (IC50 [Drug + Cobicistat]/IC50 [Drug]) [22]: 3.0 fold; Fold change in IC50 (IC50 [Drug + Cobicistat]/IC50 [Drug]) [23]: 2.2 fold; Fold change in IC50 (IC50 [Drug + Cobicistat]/IC50 [Drug]) [24]: 1.1 fold; Fold change in IC50 (IC50 [Drug + Cobicistat]/IC50 [Drug]) [25]: 5.0 fold; Fold change in IC50 (IC50 [Drug + Cobicistat]/IC50 [Drug]) [26]: 3.3 fold; Fold change in IC50 (IC50 [Drug + Cobicistat]/IC50 [Drug]) [27]: 4.4 fold; Fold change in IC50 (IC50 [Drug + Cobicistat]/IC50 [Drug]) [28]: 4.8 fold; Fold change in IC50 (IC50 [Drug + Cobicistat]/IC50 [Drug]) [29]: 3.2 fold; Fold change in IC50 (IC50 [Drug + Cobicistat]/IC50 [Drug]) [30]: 3.0 fold
COc1cccc2c1C(=O)c1c(O)c3c(c(O)c1C2=O)C[C@@](O)(C(=O)CO)C[C@@H]3O[C@H]1C[C@H](N)[C@H](O)[C@H](C)O1 [doxorubicin]	1.1	1.9	2.2	1.3	1.8	1.4	1.8	2.5	2.9	2.3	1.8	2.0	2.2	2.0	1.0	2.6	1.5	2.1	1.9	2.7	Fold change in IC50 (IC50 [Drug + Cobicistat]/IC50 [Drug]) [21]: 1.9 fold; Fold change in IC50 (IC50 [Drug + Cobicistat]/IC50 [Drug]) [22]: 2.2 fold; Fold change in IC50 (IC50 [Drug + Cobicistat]/IC50 [Drug]) [23]: 2.6 fold; Fold change in IC50 (IC50 [Drug + Cobicistat]/IC50 [Drug]) [24]: 0.8 fold; Fold change in IC50 (IC50 [Drug + Cobicistat]/IC50 [Drug]) [25]: 1.3 fold; Fold change in IC50 (IC50 [Drug + Cobicistat]/IC50 [Drug]) [26]: 2.3 fold; Fold change in IC50 (IC50 [Drug + Cobicistat]/IC50 [Drug]) [27]: 2.7 fold; Fold change in IC50 (IC50 [Drug + Cobicistat]/IC50 [Drug]) [28]: 2.1 fold; Fold change in IC50 (IC50 [Drug + Cobicistat]/IC50 [Drug]) [29]: 2.5 fold; Fold change in IC50 (IC50 [Drug + Cobicistat]/IC50 [Drug]) [30]: 5.1 fold
